Format in all cases: binding
Assay [1] has as its target T1, AtD14 (DWARF14) (Arabidopsis thaliana, UniProt Q9SQR3).
T1 sequence (Q9SQR3 2-266): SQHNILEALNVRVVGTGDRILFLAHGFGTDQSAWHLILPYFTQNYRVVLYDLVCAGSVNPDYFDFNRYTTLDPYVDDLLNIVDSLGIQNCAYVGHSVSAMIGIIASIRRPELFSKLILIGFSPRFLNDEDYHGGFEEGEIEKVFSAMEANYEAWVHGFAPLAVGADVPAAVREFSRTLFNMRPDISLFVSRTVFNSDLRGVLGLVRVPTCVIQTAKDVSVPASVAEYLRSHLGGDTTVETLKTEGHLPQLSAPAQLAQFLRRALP
The assay can be described thus: intrinsic tryptophan fluorescence Kd.

The target of assay [2] is T1, AtD14 (DWARF14). The assay can be described thus: co-crystal structure.
The target of another assay is T2, OsD14 (Oryza sativa, UniProt Q10QA5).
T2 sequence (Q10QA5 1-318): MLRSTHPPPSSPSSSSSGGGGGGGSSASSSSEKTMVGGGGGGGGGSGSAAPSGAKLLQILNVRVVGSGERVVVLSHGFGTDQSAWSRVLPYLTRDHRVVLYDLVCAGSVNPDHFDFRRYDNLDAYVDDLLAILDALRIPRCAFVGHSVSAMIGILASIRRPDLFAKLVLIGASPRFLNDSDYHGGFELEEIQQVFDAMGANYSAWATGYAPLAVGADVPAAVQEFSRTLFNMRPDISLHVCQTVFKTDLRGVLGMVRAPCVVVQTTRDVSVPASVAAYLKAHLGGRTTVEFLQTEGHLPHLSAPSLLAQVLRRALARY
The assay can be described thus: nanoDSF Tm increase. On the technique in general: In DSF a fluorescence change marks the thermal transition of the protein.

pKd: −log10 of the molar value.

Broadly, the pKd is the negative decadic logarithm of the Kd, by convention in mol/L. A higher pKd goes with a low Kd. On AtD14 (DWARF14) [1], `CC1=CC(O/C=C2/C(=O)OC3c4ccccc4CC23)OC1=O` (racemic) [(±)-GR24] gave a pKd of 6.00. `CC(=O)/C=C/C=C(C)/C=C/C1=C(C)CC(O)CC1(C)C` (stereo in doubt) [zaxinone] gave a pKd at AtD14 (DWARF14) [2] of 5.74. Further, the “nanoDSF Tm increase; tryptophan fluorescence” value at OsD14 is “tryptophan fluorescence assays confirmed the direct interaction between OsD14 and zaxinone”.

These data come from publication PMC12491641 (Nature Communications, 2025).
